Measurements as given in patent US9708312B2, “Dihydropyrimidinoisoquinolinones and pharmaceutical compositions thereof for the treatment of inflammatory disorders (GPR84 antagonists)” (GALAPAGOS NV, priority 2012, dated 2017).

Molecular target: T1, GPR84 (Homo sapiens, UniProt Q9NQS5)
T1 construct: expressed in transfected cells
Test: GPR84 [35S]GTPγS binding assay, Tris buffer (alternative)
Type: biochemical
Details: 3,3′ di indolylmethane at EC80, membranes from stable cell line over expressing GPR84, read-out: Alternative GPR84 assay GTPγS IC50 (GPR84-2)
Description: 1.1. Cell Based Assay: GTp-γ S Binding Assay.
The following assay can be used for determination of GPR84 activation. The [^35S]GTPγS binding assay measures the level of G protein activation following agonist occupation of a GPCR, by determining the binding of the non-hydrolysable analog [^35S]GTPγS to Gα subunits.
Alternatively, the assay is performed in a 96 well plate where the following reagents are added. First 50 μL compound is added into the assay plate, followed by addition of 20 μL 3,3′ di indolylmethane at EC80 concentration (concentration which gives 80% of the activity of GPR84). In a last step, 30 μL of a mixture consisting of membranes-GTPγS-SpA beads is added [mixture consists of 20 μg/well membranes derived from stable cell line over expressing GPR84 (membranes are pre-incubated with 0.1 μM GDP for 15 min at 4° C.), 0.1 nM [^35S]GTPγS (Perkin Elmer, NEG030) and 0.5 mg/well PVT-WGA SpA beads (Perkin Elmer, RPNQ0001)]. All components are diluted in assay buffer containing 20 mM Tris pH 7.5; 5 mM MgCl2; 250 mM NaCl; 0.05% BSA; 75 ug/mL saponin Reactions are incubated for 90 min at room temperature followed by centrifugation at 2000 rpm during 15 min. Plates are read on a Topcount reader (Perkin Elmer) immediately after centrifugation (readout time, 1 min/well).

T1 sequence (Q9NQS5 whole entry): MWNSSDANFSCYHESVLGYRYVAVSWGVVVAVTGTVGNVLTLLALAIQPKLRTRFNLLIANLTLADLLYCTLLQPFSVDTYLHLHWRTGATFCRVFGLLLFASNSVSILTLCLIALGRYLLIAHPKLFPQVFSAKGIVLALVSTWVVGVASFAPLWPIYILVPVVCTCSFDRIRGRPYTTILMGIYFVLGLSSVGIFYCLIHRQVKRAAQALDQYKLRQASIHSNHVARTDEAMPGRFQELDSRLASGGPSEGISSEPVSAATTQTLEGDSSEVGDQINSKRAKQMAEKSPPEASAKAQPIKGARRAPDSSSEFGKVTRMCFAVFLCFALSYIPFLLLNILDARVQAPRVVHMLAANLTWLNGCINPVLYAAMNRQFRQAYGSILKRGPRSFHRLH

IC50	Compound
0.01 to 100 nM	NC(=O)c1cccc(-c2ccc3c(c2)CCn2c-3cc(OCC3COc4ncccc4O3)nc2=O)c1 (stereo not drawn) [compound 129, 3-[2-(2,3-Dihydro-[1,4]dioxino[2,3-b]pyridin-2-ylmethoxy)-4-oxo-6,7-dihydro-4H-pyrimido[6,1-a]isoquinolin-9-yl]-benzamide]
100 to 500 nM	COc1ccccc1-c1ccc2c(c1)CCn1c-2cc(OCC2COc3ncccc3O2)nc1=O (stereo not drawn) [compound 126, 2-(2,3-dihydro-[1,4]dioxino[2,3-b]pyridin-2-ylmethoxy)-9-(2-methoxy-phenyl)-6,7-dihydro-pyrimido[6,1-a]isoquinolin-4-one]
0.01 to 100 nM	O=c1nc(OCC2COc3ncccc3O2)cc2n1CCc1cc(C#CCO)ccc1-2 (stereo not drawn) [compound 138, 2-(2,3-dihydro-[1,4]dioxino[2,3-b]pyridin-2-ylmethoxy)-9-(3-hydroxy-prop-1-ynyl)-6,7-dihydro-pyrimido[6,1-a]isoquinolin-4-one]
0.01 to 100 nM	O=c1nc(OCC2COc3ncccc3O2)cc2n1CCc1cc(OCc3ccncc3)ccc1-2 (stereo not drawn) [compound 122, 2-(2,3-Dihydro-[1,4]dioxino[2,3-b]pyridin-2-ylmethoxy)-9-(pyridin-4-ylmethoxy)-6,7-dihydro-pyrimido[6,1-a]isoquinolin-4-one]
100 to 500 nM	COCC#Cc1ccc2c(c1)CCn1c-2cc(OCC2COc3ncccc3O2)nc1=O (stereo not drawn) [compound 132, 2-(2,3-dihydro-[1,4]dioxino[2,3-b]pyridin-2-ylmethoxy)-9-(3-methoxy-prop-1-ynyl)-6,7-dihydro-pyrimido[6,1-a]isoquinolin-4-one]
0.01 to 100 nM	O=c1nc(OCC2COc3ncccc3O2)cc2n1CCc1cc(-c3cccnc3)ccc1-2 (stereo not drawn) [compound 124, 2-(2,3-Dihydro-[1,4]dioxino[2,3-b]pyridin-2-ylmethoxy)-9-pyridin-3-yl-6,7-dihydro-pyrimido[6,1-a]isoquinolin-4-one]
0.01 to 100 nM	O=c1nc(OCC2COc3ncccc3O2)cc2n1CCc1cc(C#CCCO)ccc1-2 (stereo not drawn) [compound 133, 2-(2,3-dihydro-[1,4]dioxino[2,3-b]pyridin-2-ylmethoxy)-9-(4-hydroxy-but-1-ynyl)-6,7-dihydro-pyrimido[6,1-a]isoquinolin-4-one]
0.01 to 100 nM	O=c1nc(OCC2COc3ncccc3O2)cc2n1CCc1cc(-c3ccc4[nH]ncc4c3)ccc1-2 (stereo not drawn) [compound 127, 2-(2,3-Dihydro-[1,4]dioxino[2,3-b]pyridin-2-ylmethoxy)-9-(1H-indazol-5-yl)-6,7-dihydro-pyrimido[6,1-a]isoquinolin-4-one]
0.01 to 100 nM	O=c1nc(OCC2COc3ncccc3O2)cc2n1CCc1cc(-c3cncnc3)ccc1-2 (stereo not drawn) [compound 128, 2-(2,3-dihydro-[1,4]dioxino[2,3-b]pyridin-2-ylmethoxy)-9-pyrimidin-5-yl-6,7-dihydro-pyrimido[6,1-a]isoquinolin-4-one]
0.01 to 100 nM	CC(C)(C)C#Cc1ccc2c(c1)CCn1c-2cc(OCC2COc3ncccc3O2)nc1=O (stereo not drawn) [compound 144, 2-(2,3-dihydro-[1,4]dioxino[2,3-b]pyridin-2-ylmethoxy)-9-(3,3-dimethyl-but-1-ynyl)-6,7-dihydro-pyrimido[6,1-a]isoquinolin-4-one]
100 to 500 nM	CN(C)c1ccccc1-c1ccc2c(c1)CCn1c-2cc(OCC2COc3ncccc3O2)nc1=O (stereo not drawn) [compound 130, 2-(2,3-Dihydro-[1,4]dioxino[2,3-b]pyridin-2-ylmethoxy)-9-(2-dimethylamino-phenyl)-6,7-dihydro-pyrimido[6,1-a]isoquinolin-4-one]

Continued, compound first:

Compound	IC50
COc1ccc(-c2ccc3c(c2)CCn2c-3cc(OCC3CCCO3)nc2=O)cn1 (stereo not drawn) [compound 110, 9-(6-methoxy-pyridin-3-yl)-2-(tetrahydro-furan-2-ylmethoxy)-6,7-dihydro-pyrimido[6,1-a]isoquinolin-4-one]	100 to 500 nM
Cc1noc(C)c1-c1ccc2c(c1)CCn1c-2cc(OCC2CCCO2)nc1=O (stereo not drawn) [compound 112, 9-(3,5-dimethyl-isoxazol-4-yl)-2-(tetrahydro-furan-2-ylmethoxy)-6,7-dihydro-pyrimido[6,1-a]isoquinolin-4-one]	100 to 500 nM
CC(C)(C)C#Cc1ccc2c(c1)CCn1c-2cc(OCC2CCCO2)nc1=O (stereo not drawn) [compound 120, 9-(3,3-dimethyl-but-1-ynyl)-2-(tetrahydro-furan-2-ylmethoxy)-6,7-dihydro-pyrimido[6,1-a]isoquinolin-4-one]	500 to 1000 nM
O=c1nc(OCC2CCCO2)cc2n1CCc1cc(OCc3cccc4ccccc34)ccc1-2 (stereo not drawn) [compound 38, 9-(naphthalen-1-ylmethoxy)-2-(tetrahydro-furan-2-ylmethoxy)-6,7-dihydro-pyrimido[6,1-a]isoquinolin-4-one]	500 to 1000 nM
Cc1noc(COc2ccc3c(c2)CCn2c-3cc(OCC3COc4ncccc4O3)nc2=O)n1 (stereo not drawn) [compound 135, 2-(2,3-dihydro-[1,4]dioxino[2,3-b]pyridin-2-ylmethoxy)-9-(3-methyl-[1,2,4]oxadiazol-5-ylmethoxy)-6,7-dihydro-pyrimido[6,1-a]isoquinolin-4-one]	0.01 to 100 nM
N#CCCC#Cc1ccc2c(c1)CCn1c-2cc(OCC2COc3ncccc3O2)nc1=O (stereo not drawn) [compound 143, 5-[2-(2,3-dihydro-[1,4]dioxino[2,3-b]pyridin-2-ylmethoxy)-4-oxo-6,7-dihydro-pyrimido[6,1-a]isoquinolin-9-yl]-pent-4-ynenitrile]	0.01 to 100 nM
O=c1nc(OCC2CCCO2)cc2n1CCc1cc(-c3ccc(Cl)s3)ccc1-2 (stereo not drawn) [compound 116, 9-(5-chloro-thiophen-2-yl)-2-(tetrahydro-furan-2-ylmethoxy)-6,7-dihydro-pyrimido[6,1-a]isoquinolin-4-one]	500 to 1000 nM
O=c1nc(OCC2CCCO2)cc2n1CCc1cc(-c3ccc4ccccc4c3)ccc1-2 (stereo not drawn) [compound 113, 9-naphthalen-2-yl-2-(tetrahydro-furan-2-ylmethoxy)-6,7-dihydro-pyrimido[6,1-a]isoquinolin-4-one]	0.01 to 100 nM
O=c1nc(OCC2CCCO2)cc2n1CCc1cc(-c3cccc4ccccc34)ccc1-2 (stereo not drawn) [compound 114, 9-naphthalen-1-yl-2-(tetrahydro-furan-2-ylmethoxy)-6,7-dihydro-pyrimido[6,1-a]isoquinolin-4-one]	500 to 1000 nM
O=c1nc(OCC2CCCO2)cc2n1CCc1cc(C#CC3CC3)ccc1-2 (stereo not drawn) [compound 119, 9-cyclopropylethynyl-2-(tetrahydro-furan-2-ylmethoxy)-6,7-dihydro-pyrimido[6,1-a]isoquinolin-4-one]	100 to 500 nM
Cc1cccc(COc2ccc3c(c2)CCn2c-3cc(OCC3CCCO3)nc2=O)c1 (stereo not drawn) [compound 34, 9-(3-methyl-benzyloxy)-2-(tetrahydro-furan-2-ylmethoxy)-6,7-dihydro-pyrimido[6,1-a]isoquinolin-4-one]	100 to 500 nM

Tested on: human neutrophils
Test: Human neutrophil migration assay (embelin-induced chemotaxis)
Type: cell-based
Details: Neutrophil; neutrophils from human buffy coats; embelin at EC80
Description: 2.1. Human Neutrophil Migration Assay
The effect of agonists or antagonists for GPR84 can therefore be assayed in a neutrophil migration test. In the neutrophil migration assay, neutrophils, freshly isolated from buffy coats from human volunteers, are treated with a compound for 30 min Subsequently, the neutrophils are transferred to the upper wells of a Corning HTS transwell 96 permeable support system, of which the lower wells are filled with a embelin solution at EC80 (concentration which gives 80% of the activity of GPR84). After 1 h of incubation, migration of the neutrophils towards embelin in the lower compartment can be quantified by measuring the ATP-content of the lower wells using the ATPlite luminescence ATP detection assay system (Perkin Elmer, Cat. No.: 436110).
2.1.1 Isolation of Neutrophils from Human Buffy Coat
A human buffy coat is diluted with an equal volume of ice cold DPBS. 20 mL of the diluted buffy coat is gently mixed with 4 mL of ACD buffer (140 mM citric acid, 200 mM sodium citrate and 220 mM dextrose). Then, 12 mL of the 6% dextran/0.9% NaCl solution (15 g dextran T2000 and 2.25 g NaCl dissolved in 250 mL H2O) is added to the mixture and the samples are inverted gently up to 20 times. The total volume was transferred to a new recipient and incubated at room temperature for 1 h for complete separation of the two phases to occur. The yellowish supernatant is then transferred to a clean centrifugation tube and centrifuged for 12 min at 1300 rpm and 4° C. After centrifugation, the supernatant is discarded and the remaining cell pellet is rapidly resuspended in 12 mL of ice-cold H2O for red blood cell lysis to occur. After 20 seconds, 4 mL of ice-cold 0.6 M KCl is added. Samples are mixed carefully and centrifuged for 6 min at 1300 rpm, 4° C. The supernatant is discarded and the red blood cell lysis procedure is repeated one more time. Subsequently, the cell pellet is resuspended in 4 mL of DPBS and layered over 5 mL of Lymphoprep (Nycomed Pharma, Cat. No.: 1114545) in a 15 mL centrifuge tube. After centrifugation for 12 min at 1300 rpm, 4° C., the supernatant is removed and the cell pellet, containing the neutrophils, is resuspended in 25 mL chemotaxis buffer (RPMI 1640 medium, supplemented with 10 mM HEPES; freshly made for each experiment)
A cell suspension of 8.9×10^6 cells per milliliter is prepared. 20 μL of compound solution in chemotaxis buffer is added to 180 μL cell suspension. The mixture is incubated at 37° C. for 30 min with intermediate resuspension of the cells after 15 min Following this, 70 μL cell suspension is transferred to the upper compartment of a Corning HTS transwell 96 permeable support system with 5.0 μm pore size polycarbonate membrane (Corning, Cat. No.: 3387). The receiver well of the transwell system is then filled with 200 μL chemotaxis buffer containing compound and chemotactic agent (embelin). After incubation at 37° C. in 5% CO2 for 1 h, the upper plate of the transwell system is removed and the cell suspension in the receiver plate is transferred to a 96-well V-bottom plate. 50 μL of DPBS is added to the receiver plate to prevent remaining cells from drying out. The V-bottom plate is centrifuged for 6 min at 1500 rpm. The supernatant is removed and the cells are resuspended in 50 μL DPBS. The cells are then transferred back to the receiver plate of the transwell system. After this, 100 μL ATPlite solution (Perkin Elmer, Cat. No: 436110) was added to the cells. The plate is incubated for 10 min in the dark, while shaking. […] of cell lysate is then transferred to a white 96-well plate and luminescence is measured. The detected luminescent signal is considered as linearely related to the number of cells having migrated from the upper well to the receiver well.

IC50	Compound
0.01 to 100 nM	O=c1nc(OCC2COc3ncccc3O2)cc2n1CCc1cc(OCc3ccncc3)ccc1-2 (stereo not drawn) [compound 122, 2-(2,3-Dihydro-[1,4]dioxino[2,3-b]pyridin-2-ylmethoxy)-9-(pyridin-4-ylmethoxy)-6,7-dihydro-pyrimido[6,1-a]isoquinolin-4-one]
0.01 to 100 nM	COCC#Cc1ccc2c(c1)CCn1c-2cc(OCC2COc3ncccc3O2)nc1=O (stereo not drawn) [compound 132, 2-(2,3-dihydro-[1,4]dioxino[2,3-b]pyridin-2-ylmethoxy)-9-(3-methoxy-prop-1-ynyl)-6,7-dihydro-pyrimido[6,1-a]isoquinolin-4-one]
